Data taken from patent US10513694B2, “Thienopyrrole compounds and uses thereof” (PROMEGA CORPORATION, priority 2015, dated 2019).
Entries after “also recorded” stand apart in the source; their conditions may differ.

Legend:
[1] = tested on: firefly luciferase, e.g., ULTRAGLO® luciferase; test: Specificity of inhibition: firefly luciferase activity; format: biochemical; conditions: 1 μM luciferin in Luciferase Detection Reagent; RT 2 hrs
Description: (§1) The following example describes the specificity of disclosed thienopyrrole compounds, JRW-0004, JRW-0013, JRW-0006, JRW-0042, JRW-0138, and JRW-0147, to inhibit Nluc luciferase activity versus firefly luciferase activity, e.g., ULTRAGLO® luciferase. In a Corning 3570 assay plate, a solution containing 1 μM luciferin in Luciferase Detection Reagent (Promega Corporation V865/859) was added to the assay wells. An equal volume of titrations the thienopyrrole compounds, JRW-0004, JRW-0013, JRW-0006, JRW-0042, JRW-0138, and JRW-0147 were then added to the wells. The reactions were incubated at RT for 2 hrs, and luminescence was measured on Tecan M1000 Pro plate reader.

purified Nluc enzyme = molecular target: T1, purified Nluc enzyme (Oplophorus gracilirostris, UniProt Q9GV45, A31E/A60N/A81I/F95D/I117V/K70R/L54V/L99Q/M102K/N193R/P142E/Q151K/Q38R/Q45L/V71I/Y165I); format: biochemical; conditions: titration up to 100 μM final; RT 2 hrs; pro-substrate PBI-4442 + DTT
T1 construct: purchased Promega Corporation
T1 sequence (Q9GV45 28-196 with tags or gaps with the stated changes limits assumed): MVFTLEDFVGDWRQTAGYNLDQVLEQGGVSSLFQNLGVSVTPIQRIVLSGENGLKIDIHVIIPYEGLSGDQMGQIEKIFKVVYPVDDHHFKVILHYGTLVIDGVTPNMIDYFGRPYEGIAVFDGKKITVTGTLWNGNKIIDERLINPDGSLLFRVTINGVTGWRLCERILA
Description: In a Corning 3570 assay plate, purified Nluc enzyme (Promega Corporation), 20 mM DTT, and an Nluc pro-substrate (PBI-4442, which is described in US Patent Publication No. 2013/0130289), which is converted to an Nluc substrate upon reduction with DTT, was added. Compound titrations of JRW-0004, JRW-0013, JRW-0006, JRW-0042, JRW-0138, and JRW-0147 were then made (1:2 serial dilution in PBS, 11 points plus no inhibitor control, starting at 200 μM; 100 μM final concentration in reaction). Compound titrations were added in equal volume to the wells of the assay plate. The reactions were incubated at RT for 2 hrs, and luminescence was measured on Tecan M1000 Pro plate reader. Half-maximal inhibitor (thienopyrrole compound) concentrations (IC50s) were determined using GraphPad Prism 6.03.

NANOLUC® enzyme = NANOLUC® enzyme (Oplophorus gracilirostris, UniProt Q9GV45, A31E/A60N/A81I/F95D/I117V/K70R/L54V/L99Q/M102K/N193R/P142E/Q151K/Q38R/Q45L/V71I/Y165I); test: Inhibitor IC50 determination (NANOLUC enzyme, furimazine); format: biochemical; conditions: IC50 (uM), 0.4 ng/ml NANOLUC enzyme, final furimazine 10 uM (at Km)
NANOLUC® enzyme, sequence (Q9GV45 28-196 with tags or gaps with the stated changes limits assumed): as above
Description: The following example provides the IC50 values for the compounds disclosed herein. See Table 5 NANOLUC® enzyme was diluted to 0.4 ng/ml in CO2 independent media+10% FBS to make the detection reagent. A 3× dilution series of each inhibitor was then made in the detection reagent. A “no inhibitor” control was also made for each sample. 50 ul of each inhibitor dilution was mixed with 50 ul of NanoGlo buffer containing 20 uM furimazine. (Final furimazine concentration is 10 uM which is at Km.), and luminescence measured. Each sample was normalized to the “no inhibitor” control. The […] values were then determined using GraphPad Prism (log [inhibitor] vs. normalized response).

Nluc = Nluc (Oplophorus gracilirostris, UniProt Q9GV45, A31E/A60N/A81I/F95D/I117V/K70R/L54V/L99Q/M102K/N193R/P142E/Q151K/Q38R/Q45L/V71I/Y165I); test: Specificity of inhibition of Nluc luciferase: Nluc; format: biochemical
Nluc, sequence (Q9GV45 28-196 with tags or gaps with the stated changes limits assumed): as above

UltraGlo luciferase = test: Specificity of inhibition of Nluc luciferase: UltraGlo luciferase; format: biochemical, firefly; conditions: RT 2 hrs
Description: as §1, with “JRW-0251, JRW-0344,” for “JRW-0004, JRW-0013, JRW-0006, JRW-0042, JRW-0138,”

Nluc luciferase = Nluc luciferase (Oplophorus gracilirostris, UniProt Q9GV45, A31E/A60N/A81I/F95D/I117V/K70R/L54V/L99Q/M102K/N193R/P142E/Q151K/Q38R/Q45L/V71I/Y165I); test: Inhibition of purified Nluc, dose and time dependence; format: biochemical; conditions: pro-substrate PBI-4442, DTT, TERGITOL, RT, various time points
Nluc luciferase, sequence (Q9GV45 28-196 with tags or gaps with the stated changes limits assumed): as above
Description: A solution of purified Nluc and an Nluc pro-substrate (PBI-4442, which is described in US 2013/0130289), which is converted to an Nluc substrate upon reduction with DTT, were prepared in PBS buffer, pH 7.5. A 40 mM solution of DTT in PBS, pH 7.5 containing 1% TERGITOL was also prepared. Titrations of the thienopyrrole compounds JRW-0004, WZ141-88, WZ141-86, WZ141-74, WZ141-84, WZ141-89, WZ141-90, and WZ141-91 in the buffer containing DTT and TERGITOL were then prepared. An equal volume of the Nluc/pro-substrate solution was added to the thienopyrrole compound titrations in wells of an assay plate. The reactions were incubated at RT, and luminescence was measured at various time points on the Tecan M100 Pro plate reader (integration time 200 ms). IC50 values were determined using GraphPad Prism 6.03.

Structure (SMILES): CCN(C(=O)Cn1c(C(=O)NC2CCCCC2)cc2sccc21)c1cccc(C)c1 [JRW-0006, N-cyclohexyl-4-(2-(ethyl(m-tolyl)amino)-2-oxoethyl)-4H-thieno[3,2-b]pyrrole-5-carboxamide]
- Inhibition of firefly luciferase activity (FIG. 3) [1]: do not inhibit firefly luciferase activity; also recorded: did not inhibit the firefly luciferase activity
- Inhibition of purified Nluc enzyme (FIG. 2) (purified Nluc enzyme): capable of inhibiting purified Nluc enzyme
- IC50 (NANOLUC® enzyme): 0.26 µM

Structure (SMILES): CCN(C(=O)Cn1c(C(=O)N[C@H]2CC[C@H](C(=O)NCCCCCCNC(=O)[C@H](CC(=O)O)NC(=O)[C@H](CC(=O)O)NC(=O)[C@H](CC(=O)O)NC(C)=O)CC2)cc2sccc21)c1cccc(C)c1 [JRW-0251, (11S,14S,17S)-17-acetamido-11,14-bis(carboxymethyl)-1-(trans-4-(4-(2-(ethyl(m-tolyl)amino)-2-oxoethyl)-4H-thieno[3,2-b]pyrrole-5-carboxamido)cyclohexyl)-1,10,13,16-tetraoxo-2,9,12,15-tetraazanonadecan-19-oic acid]
- Nluc, Avg (luminescence) (Nluc; [cmpd] 0.1953125 μM): 108634
- Nluc, S/B (Nluc; [cmpd] 0.1953125 μM): 0.95
- Nluc, Avg (luminescence) (Nluc; [cmpd] 0.390625 μM): 106075
- Nluc, S/B (Nluc; [cmpd] 0.390625 μM): 0.93
- Nluc, Avg (luminescence) (Nluc; [cmpd] 0.78125 μM): 105881
- Nluc, S/B (Nluc; [cmpd] 0.78125 μM): 0.92
- Nluc, Avg (luminescence) (Nluc; [cmpd] 1.5625 μM): 96602
- Nluc, S/B (Nluc; [cmpd] 1.5625 μM): 0.84
- Nluc, Avg (luminescence) (Nluc; [cmpd] 3.125 μM): 86555
- Nluc, S/B (Nluc; [cmpd] 3.125 μM): 0.76
- Nluc, Avg (luminescence) (Nluc; [cmpd] 6.25 μM): 81193
- Nluc, S/B (Nluc; [cmpd] 6.25 μM): 0.71
- Nluc, Avg (luminescence) (Nluc; [cmpd] 12.5 μM): 68664
- Nluc, S/B (Nluc; [cmpd] 12.5 μM): 0.60
- Nluc, Avg (luminescence) (Nluc; [cmpd] 25 μM): 55210
- Nluc, S/B (Nluc; [cmpd] 25 μM): 0.48
- Nluc, Avg (luminescence) (Nluc; [cmpd] 50 μM): 44219
- Nluc, S/B (Nluc; [cmpd] 50 μM): 0.39
- Nluc, Avg (luminescence) (Nluc; [cmpd] 100 μM): 34389
- Nluc, S/B (Nluc; [cmpd] 100 μM): 0.30
- Nluc, Avg (luminescence) (Nluc; [cmpd] 200 μM): 23311
- Nluc, S/B (Nluc; [cmpd] 200 μM): 0.20
- Inhibition of firefly luciferase activity (Table 3) (UltraGlo luciferase): did not inhibit the firefly luciferase activity
- UltraGlo luciferase, Avg (luminescence) (UltraGlo luciferase; [cmpd] 0.1953125 μM): 83059
- UltraGlo luciferase, S/B (UltraGlo luciferase; [cmpd] 0.1953125 μM): 0.98
- UltraGlo luciferase, Avg (luminescence) (UltraGlo luciferase; [cmpd] 0.390625 μM): 82723
- UltraGlo luciferase, S/B (UltraGlo luciferase; [cmpd] 0.390625 μM): 0.98
- UltraGlo luciferase, Avg (luminescence) (UltraGlo luciferase; [cmpd] 0.78125 μM): 82812
- UltraGlo luciferase, S/B (UltraGlo luciferase; [cmpd] 0.78125 μM): 0.98
- UltraGlo luciferase, Avg (luminescence) (UltraGlo luciferase; [cmpd] 1.5625 μM): 82370
- UltraGlo luciferase, S/B (UltraGlo luciferase; [cmpd] 1.5625 μM): 0.98
- UltraGlo luciferase, Avg (luminescence) (UltraGlo luciferase; [cmpd] 3.125 μM): 81125
- UltraGlo luciferase, S/B (UltraGlo luciferase; [cmpd] 3.125 μM): 0.96
- UltraGlo luciferase, Avg (luminescence) (UltraGlo luciferase; [cmpd] 6.25 μM): 83665
- UltraGlo luciferase, S/B (UltraGlo luciferase; [cmpd] 6.25 μM): 0.99
- UltraGlo luciferase, Avg (luminescence) (UltraGlo luciferase; [cmpd] 12.5 μM): 83569
- UltraGlo luciferase, S/B (UltraGlo luciferase; [cmpd] 12.5 μM): 0.99
- UltraGlo luciferase, Avg (luminescence) (UltraGlo luciferase; [cmpd] 25 μM): 83382
- UltraGlo luciferase, S/B (UltraGlo luciferase; [cmpd] 25 μM): 0.99
- UltraGlo luciferase, Avg (luminescence) (UltraGlo luciferase; [cmpd] 50 μM): 81930
- UltraGlo luciferase, S/B (UltraGlo luciferase; [cmpd] 50 μM): 0.97
- UltraGlo luciferase, Avg (luminescence) (UltraGlo luciferase; [cmpd] 100 μM): 79556
- UltraGlo luciferase, S/B (UltraGlo luciferase; [cmpd] 100 μM): 0.94
- UltraGlo luciferase, Avg (luminescence) (UltraGlo luciferase; [cmpd] 200 μM): 77788
- UltraGlo luciferase, S/B (UltraGlo luciferase; [cmpd] 200 μM): 0.92
- IC50 (NANOLUC® enzyme): 0.077 µM

Structure (SMILES): CCN(C(=O)Cn1c(C(=O)O)cc2sccc21)c1cccc(C)c1 [WZ-141-74, 4-(2-(ethyl(m-tolyl)amino)-2-oxoethyl)-4H-thieno[3,2-b]pyrrole-5-carboxylic acid]
- Inhibition of Nluc luciferase, dose and time dependence (FIGS. 4-6) (Nluc luciferase): inhibit Nluc luciferase in a dose- and time-dependent manner
- IC50 (NANOLUC® enzyme): 16.4 µM

Structure (SMILES): CCN(C(=O)Cn1c(C(=O)NC)cc2sccc21)c1cccc(C)c1 [WZ-141-84, 4-(2-(ethyl(m-tolyl)amino)-2-oxoethyl)-N-methyl-4H-thieno[3,2-b]pyrrole-5-carboxamide]
- Inhibition of Nluc luciferase, dose and time dependence (FIGS. 4-6) (Nluc luciferase): inhibit Nluc luciferase in a dose- and time-dependent manner
- IC50 (NANOLUC® enzyme): 5.5 µM

Structure (SMILES): COC(=O)c1cc2sccc2n1CC(=O)N(Cc1ccccc1)c1cccc(C)c1 [WZ-141-86, methyl 4-(2-(benzyl(m-tolyl)amino)-2-oxoethyl)-4H-thieno[3,2-b]pyrrole-5-carboxylate]
- Inhibition of Nluc luciferase, dose and time dependence (FIGS. 4-6) (Nluc luciferase): inhibit Nluc luciferase in a dose- and time-dependent manner

Structure (SMILES): CCN(C(=O)Cn1c(C(=O)NC2CCCC2)cc2sccc21)c1cccc(C)c1 [WZ-141-88, N-cyclopentyl-4-(2-(ethyl(m-tolyl)amino)-2-oxoethyl)-4H-thieno[3,2-b]pyrrole-5-carboxamide]
- Inhibition of Nluc luciferase, dose and time dependence (FIGS. 4-6) (Nluc luciferase): inhibit Nluc luciferase in a dose- and time-dependent manner
- IC50 (NANOLUC® enzyme): 0.54 µM

Structure (SMILES): CCN(C(=O)Cn1c(C(=O)NCc2ccncc2)cc2sccc21)c1cccc(C)c1 [WZ-141-89, 4-(2-(ethyl(m-tolyl)amino)-2-oxoethyl)-N-(pyridin-4-ylmethyl)-4H-thieno[3,2-b]pyrrole-5-carboxamide]
- Inhibition of Nluc luciferase, dose and time dependence (FIGS. 4-6) (Nluc luciferase): inhibit Nluc luciferase in a dose- and time-dependent manner

Structure (SMILES): CCN(C(=O)Cn1c(C(=O)NCCCN2CCOCC2)cc2sccc21)c1cccc(C)c1 [WZ-141-90, 4-(2-(ethyl(m-tolyl)amino)-2-oxoethyl)-N-(3-morpholinopropyl)-4H-thieno[3,2-b]pyrrole-5-carboxamide]
- Inhibition of Nluc luciferase, dose and time dependence (FIGS. 4-6) (Nluc luciferase): inhibit Nluc luciferase in a dose- and time-dependent manner

Structure (SMILES): CCN(C(=O)Cn1c(C(=O)N2CCN(C)CC2)cc2sccc21)c1cccc(C)c1 [WZ-141-91, N-ethyl-2-(5-(4-methylpiperazine-1-carbonyl)-4H-thieno[3,2-b]pyrrol-4-yl)-N-(m-tolyl)acetamide]
- Inhibition of Nluc luciferase, dose and time dependence (FIGS. 4-6) (Nluc luciferase): inhibit Nluc luciferase in a dose- and time-dependent manner
